Data from EP4775583A1, “COMPOUND OR SALT THEREOF, METHOD FOR PRODUCING SAME, PHARMACEUTICAL COMPOSITION CONTAINING COMPOUND OR SALT THEREOF, AND METHOD FOR PRODUCING SAME” (Celaid Therapeutics Inc., priority 2023, dated 2025).
Entries after “also recorded” stand apart in the source; their conditions may differ. Where a name gives a salt, the structure may show the parent alone. One block for each molecule: values may come before it.

Legend:
[1] = system: mouse neuroblastoma N2a cells; assay: Neurite outgrowth assay; format: cell-based; details: for neurite outgrowth / neurite outgrowth-promoting activity, comparison between compounds: 0.2 µM, 48 h treatment (Fig. 21(B)); for neurite outgrowth-promoting activity, comparison between compounds: structure-activity comparison; for dose-dependent neurite outgrowth activity: 0.02 - 2 µM, 48 h treatment (Fig. 21(C))
Experimental: The Mouse Neuro-2a (N2a) cell line was obtained from the Japanese Collection of Research Bioresources (JCRB) Cell Bank. The N2a cells were plated at a concentration of 1 × 10^4 cells/mL in Dulbecco's modified Eagle's medium (hereinafter also referred to as DMEM) containing high glucose, 10% FBS, 100 U/mL penicillin, and 100 µg/mL streptomycin at 37 °C in a humidified atmosphere of 5% CO2.
For the neurite outgrowth assay, the medium was changed to DMEM supplemented with 2% FBS. After incubation with the test compounds, cell morphology was examined using a microscope (Olympus CKX41).
The differentiated cells were defined as those with at least one neurite that was longer than twice the diameter of the cell body. The results were expressed as the percentage of differentiated cells among the counted cells. These experiments were carried out in triplicate.

KDM5A [2] = molecular target: T1, KDM5A (Mus musculus, UniProt Q3UXZ9); assay: Western blot detection of KDM5A levels (degradation); format: cell-based; details: N2a cells
T1 construct: Western Blot-Detection of KDM5A Levels in N2a Cells; endogenous in cells; host or cells: N2a (mouse neuroblastoma neuro-2a) cells
Experimental: (§1) The N2a cells (5 × 10^5 cells/2 mL/dish) were treated for 24 h with the test compounds at the indicated concentrations in a 10% FBS-supplemented cell culture medium, and cells were collected and extracted with SDS sampling buffer. Protein concentrations of the lysates were determined using a BCA protein assay. Equivalent amounts of protein from each lysate were resolved in 5% to 20% SDS-polyacrylamide gels, and bands were transferred onto PVDF membranes (Millipore, #IPVH00010 for β-actin detection, #ISEQ10100 for H3, H3K4me3, and H3K27Ac detection). After blocking with TBS-T containing 5% skimmed milk, the transblotted membranes were probed with primary antibodies. The following antibodies were used as the primary antibodies: rabbit monoclonal KDM5A antibody (CST #3876, 1 : 1000 dilution); mouse monoclonal β-actin antibody (Santa Cruz, #sc-47778, 1 : 2000 dilution); rabbit polyclonal H3K4me3 antibody (Abcam, #ab8580, 1 : 5000 dilution); rabbit polyclonal H3K27Ac antibody (Abcam, #ab4729, 1 : 1000 dilution); or rabbit polyclonal histone H3 antibody (Abcam, #ab1791, 1 : 200000 dilution). […]

H3K4me3 = assay: Western blot detection of H3K4me3 levels; format: cell-based, Mouse; details: N2a cells, 24 h treatment (Fig. 26)
Experimental: as §1

H3K27Ac = assay: Western blot detection of H3K27Ac levels; format: cell-based, Mouse; details: N2a cells, 24 h treatment (Fig. 26)
Experimental: as §1

KDM5A [3] = molecular target: KDM5A (Homo sapiens, UniProt P29375); assay: KDM5A inhibitory activity, in vitro assay; format: biochemical; details: in vitro assay (Fig. 27)
HDAC1 = HDAC1 (Homo sapiens, UniProt Q13547); assay: HDAC1 inhibitory activity, in vitro assay; format: biochemical; details: in vitro assay (Fig. 27)
Sequence of HDAC1 (Q13547 whole entry, species assumed): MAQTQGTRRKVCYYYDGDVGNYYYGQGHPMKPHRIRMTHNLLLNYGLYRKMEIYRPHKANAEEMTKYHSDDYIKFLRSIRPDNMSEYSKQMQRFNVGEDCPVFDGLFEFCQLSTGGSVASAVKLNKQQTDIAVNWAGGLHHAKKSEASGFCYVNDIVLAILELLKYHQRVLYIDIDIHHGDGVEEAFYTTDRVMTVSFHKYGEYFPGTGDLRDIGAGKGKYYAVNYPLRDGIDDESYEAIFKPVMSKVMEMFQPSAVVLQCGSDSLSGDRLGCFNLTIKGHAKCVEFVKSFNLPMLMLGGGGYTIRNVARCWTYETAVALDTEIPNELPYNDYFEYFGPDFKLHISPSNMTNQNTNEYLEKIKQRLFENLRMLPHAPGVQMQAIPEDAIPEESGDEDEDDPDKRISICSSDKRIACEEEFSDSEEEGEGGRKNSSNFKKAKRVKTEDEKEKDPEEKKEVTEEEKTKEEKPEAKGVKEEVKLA

T1 sequence (Q3UXZ9 whole entry): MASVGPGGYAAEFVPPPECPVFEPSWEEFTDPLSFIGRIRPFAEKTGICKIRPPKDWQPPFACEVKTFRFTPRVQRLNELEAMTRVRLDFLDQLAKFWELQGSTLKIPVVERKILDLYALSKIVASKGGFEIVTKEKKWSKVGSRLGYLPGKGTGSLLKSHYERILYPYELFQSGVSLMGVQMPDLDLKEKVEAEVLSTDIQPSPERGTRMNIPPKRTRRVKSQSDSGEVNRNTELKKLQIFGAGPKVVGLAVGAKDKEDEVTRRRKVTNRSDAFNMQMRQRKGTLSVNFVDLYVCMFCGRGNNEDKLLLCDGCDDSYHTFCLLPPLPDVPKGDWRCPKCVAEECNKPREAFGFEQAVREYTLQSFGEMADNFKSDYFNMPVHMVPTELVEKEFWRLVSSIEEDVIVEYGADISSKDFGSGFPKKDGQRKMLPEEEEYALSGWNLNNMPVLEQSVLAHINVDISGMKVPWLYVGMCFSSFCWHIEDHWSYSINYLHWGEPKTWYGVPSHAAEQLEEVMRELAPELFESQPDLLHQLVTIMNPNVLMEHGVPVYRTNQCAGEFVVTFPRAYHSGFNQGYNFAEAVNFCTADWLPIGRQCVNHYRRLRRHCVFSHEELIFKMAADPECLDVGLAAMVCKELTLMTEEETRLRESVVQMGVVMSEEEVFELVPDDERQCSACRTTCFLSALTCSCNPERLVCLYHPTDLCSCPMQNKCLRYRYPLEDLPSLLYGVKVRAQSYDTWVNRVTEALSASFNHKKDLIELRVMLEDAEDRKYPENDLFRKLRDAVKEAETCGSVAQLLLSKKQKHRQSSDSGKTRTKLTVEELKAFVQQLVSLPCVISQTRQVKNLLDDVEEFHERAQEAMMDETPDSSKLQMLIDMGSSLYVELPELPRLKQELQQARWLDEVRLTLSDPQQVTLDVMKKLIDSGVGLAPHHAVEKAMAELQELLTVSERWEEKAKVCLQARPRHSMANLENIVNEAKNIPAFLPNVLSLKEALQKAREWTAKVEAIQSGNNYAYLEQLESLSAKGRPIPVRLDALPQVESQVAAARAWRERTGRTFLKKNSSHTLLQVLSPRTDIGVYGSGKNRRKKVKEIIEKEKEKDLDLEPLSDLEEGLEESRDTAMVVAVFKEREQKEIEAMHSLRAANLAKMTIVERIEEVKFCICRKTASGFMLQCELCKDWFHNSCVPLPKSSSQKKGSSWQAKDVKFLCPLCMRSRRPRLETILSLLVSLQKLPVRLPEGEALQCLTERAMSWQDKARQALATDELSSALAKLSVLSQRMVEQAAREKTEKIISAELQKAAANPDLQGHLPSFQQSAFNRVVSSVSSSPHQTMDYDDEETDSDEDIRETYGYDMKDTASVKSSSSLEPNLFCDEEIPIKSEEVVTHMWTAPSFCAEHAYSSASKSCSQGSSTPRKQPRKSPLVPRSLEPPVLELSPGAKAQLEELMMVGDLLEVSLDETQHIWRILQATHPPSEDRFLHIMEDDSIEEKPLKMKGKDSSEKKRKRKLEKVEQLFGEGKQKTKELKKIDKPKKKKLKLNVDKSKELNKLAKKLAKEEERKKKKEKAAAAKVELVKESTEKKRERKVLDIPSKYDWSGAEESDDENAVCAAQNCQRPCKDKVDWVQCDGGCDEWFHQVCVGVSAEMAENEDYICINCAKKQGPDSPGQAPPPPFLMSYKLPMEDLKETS
Sequence of KDM5A (Homo sapiens, UniProt P29375) (P29375 whole entry, species assumed): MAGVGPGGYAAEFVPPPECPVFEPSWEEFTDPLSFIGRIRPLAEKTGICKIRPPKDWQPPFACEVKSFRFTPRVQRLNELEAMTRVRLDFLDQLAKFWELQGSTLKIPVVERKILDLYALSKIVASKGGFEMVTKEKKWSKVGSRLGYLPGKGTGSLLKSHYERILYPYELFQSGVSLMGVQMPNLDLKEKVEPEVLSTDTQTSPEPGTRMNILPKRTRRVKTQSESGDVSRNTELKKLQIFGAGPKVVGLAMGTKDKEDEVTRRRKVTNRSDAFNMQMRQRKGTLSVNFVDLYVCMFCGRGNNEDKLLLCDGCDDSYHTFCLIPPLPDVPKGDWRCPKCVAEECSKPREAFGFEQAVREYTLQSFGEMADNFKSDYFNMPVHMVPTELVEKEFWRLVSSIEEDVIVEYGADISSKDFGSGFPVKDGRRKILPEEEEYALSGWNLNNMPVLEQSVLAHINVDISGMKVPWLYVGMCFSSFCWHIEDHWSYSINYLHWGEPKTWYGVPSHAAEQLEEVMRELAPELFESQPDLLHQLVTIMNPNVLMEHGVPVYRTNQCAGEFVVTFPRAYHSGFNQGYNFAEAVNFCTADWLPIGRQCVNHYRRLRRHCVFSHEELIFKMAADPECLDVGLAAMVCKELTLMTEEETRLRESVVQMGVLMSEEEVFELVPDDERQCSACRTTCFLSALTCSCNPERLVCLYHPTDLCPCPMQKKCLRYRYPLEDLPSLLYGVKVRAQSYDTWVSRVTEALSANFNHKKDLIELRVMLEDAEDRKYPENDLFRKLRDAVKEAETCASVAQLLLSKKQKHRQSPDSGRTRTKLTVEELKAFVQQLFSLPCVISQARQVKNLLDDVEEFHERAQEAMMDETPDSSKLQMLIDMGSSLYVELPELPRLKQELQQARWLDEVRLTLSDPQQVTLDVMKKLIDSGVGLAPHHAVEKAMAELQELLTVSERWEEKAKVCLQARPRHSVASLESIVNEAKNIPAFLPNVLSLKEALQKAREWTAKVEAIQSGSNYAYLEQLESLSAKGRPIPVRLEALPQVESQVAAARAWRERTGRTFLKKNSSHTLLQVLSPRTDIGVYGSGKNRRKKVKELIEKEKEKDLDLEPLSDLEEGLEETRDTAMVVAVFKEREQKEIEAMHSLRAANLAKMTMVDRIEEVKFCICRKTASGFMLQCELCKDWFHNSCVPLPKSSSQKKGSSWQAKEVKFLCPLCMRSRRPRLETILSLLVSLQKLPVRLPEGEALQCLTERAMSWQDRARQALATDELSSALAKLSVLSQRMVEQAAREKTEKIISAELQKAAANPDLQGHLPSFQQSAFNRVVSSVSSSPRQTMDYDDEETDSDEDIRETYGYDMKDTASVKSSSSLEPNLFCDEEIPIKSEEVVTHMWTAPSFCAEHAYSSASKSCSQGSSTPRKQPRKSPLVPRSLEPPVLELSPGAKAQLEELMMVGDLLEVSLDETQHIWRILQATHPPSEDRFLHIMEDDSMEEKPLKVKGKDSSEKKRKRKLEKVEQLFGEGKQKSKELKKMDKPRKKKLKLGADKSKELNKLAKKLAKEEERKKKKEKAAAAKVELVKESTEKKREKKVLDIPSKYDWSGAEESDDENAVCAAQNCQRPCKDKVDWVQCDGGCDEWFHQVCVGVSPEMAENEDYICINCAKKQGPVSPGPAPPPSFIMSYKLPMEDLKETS

SMILES: CC(C)c1c(-c2ccc(CCN(C)CCCCCCC(=O)NCCOCCOCCOc3cccc4c3C(=O)N(C3CCC(=O)NC3=O)C4=O)cc2)[nH]c2c(C#N)cnn2c1=O (centres unmarked) [Compound 14a, hydrochloride]
- neurite outgrowth ([1]; N2a cells): promoted neurite outgrowth

SMILES: CC(C)c1c(-c2ccc(CCN(C)CCCCCCCCCC(=O)NCCOCCOCCOc3cccc4c3C(=O)N(C3CCC(=O)NC3=O)C4=O)cc2)[nH]c2c(C#N)cnn2c1=O (centres unmarked) [Compound 14b, 10-{[4-(3-Cyano-6-isopropyl-7-oxo-4,7-dihydropyrazolo[1,5-a]pyrimidin-5-yl)phenethyl](methyl)-amino}-N-{2-[2-(2,6-dioxopiperidin-3-yl)-1,3-dioxoindolin-4-yl]oxy}ethoxy}ethyl}decanamide Hydrochloride]
- neurite outgrowth ([1]; N2a cells): promoted neurite outgrowth
- neurite outgrowth-promoting activity, comparison between compounds ([1]; N2a cells): stronger neurite outgrowth-promoting activity than compound 14a

SMILES: CC(C)c1c(-c2ccc(CCN(C)CCCCCCc3ccc(C(=O)NCCOCCOCCOc4cccc5c4C(=O)N(C4CCC(=O)NC4=O)C5=O)cc3)cc2)[nH]c2c(C#N)cnn2c1=O (centres unmarked) [Compound 20a]
- neurite outgrowth ([1]; N2a cells): promoted neurite outgrowth

SMILES: CC(C)c1c(-c2ccc(CCN(C)CCCCCCc3ccc(C(=O)NCCCCCCOc4cccc5c4C(=O)N(C4CCC(=O)NC4=O)C5=O)cc3)cc2)[nH]c2c(C#N)cnn2c1=O (centres unmarked) [Compound 23a, 4-(6-{[4-(3-cyano-6-isopropyl-7-oxo-4,7-dihydropyrazolo[1,5-a]pyrimidin-5-yl)phenethyl](methyl)amino}hexyl)-N-(6-{[2-(2,6-dioxopiperidin-3-yl) -1, 3 - dioxoindolin-4-yl]oxy}hexyl) benzamide hydrochloride]
- neurite outgrowth ([1]; N2a cells): promoted neurite outgrowth

- KDM5A inhibitory activity (KDM5A [3]): strongly inhibited KDM5A
- HDAC1 inhibitory activity (HDAC1): without affecting HDAC1
SMILES: CC(C)c1c(-c2ccc(CCN(C)CCCCCCc3cccc(C(=O)NCCCCCCOc4cccc5c4C(=O)N(C4CCC(=O)NC4=O)C5=O)c3)cc2)[nH]c2c(C#N)cnn2c1=O (centres unmarked) [Compound 23b, 3-(6-{[4-(3-Cyano-6-isopropyl-7-oxo-4,7-dihydropyrazolo[1,5-a]pyrimidin-5-yl)phenethyl](methyl)-amino}hexyl)-N-(6-{[2-(2,6-dioxopiperidin-3-yl)-1,3-dioxoindolin-4-yl]oxy}hexyl)benzamide Hydrochloride]
- neurite outgrowth-promoting activity, overall assessment ([1]; N2a cells (Fig. 21(B))): remarkable neurite outgrowth-promoting activity
- time-dependent neurite outgrowth activity (number of neurite cells) ([1]; N2a cells, 0.02 µM, 24, 48 and 72 hours (Fig. 21(D))): increased the number of neurite cells in a time-dependent manner
- neurite outgrowth ([1]; N2a cells): promoted neurite outgrowth
- neurite outgrowth-promoting activity, comparison between compounds ([1]; N2a cells, Hydrochloride): superior to those of the para-substituent compounds 20a and 23a; also recorded: slightly better than that of the polyethylene linker compound 20b
- dose-dependent neurite outgrowth activity ([1]; N2a cells): promoted neurite outgrowth
- KDM5A levels on co-treatment with proteasome inhibitor MG-132 (KDM5A [2]; 24 h co-treatment with MG-132 (Fig. 25(C), 25(D))): disturbed by the proteasome inhibitor MG-132
- KDM5A levels (KDM5A [2]; 24 h treatment (Fig. 25(A), 25(B))): decreased KDM5A levels in a dose-dependent manner
- H3K4me3 levels (H3K4me3): dose-dependent accumulation of H3K4me3 levels
- H3K27Ac levels (H3K27Ac): upregulated H3K27Ac levels

SMILES: O=C1CCC(N2C(=O)c3ccccc3C2=O)C(=O)N1 (centres unmarked) [Compound 26, thalidomide, reference compound]
- dose-dependent neurite outgrowth activity ([1]; N2a cells): did not show strong neurite outgrowth activity relative to Compounds 20b and 23b
